Toxic doses and inconclusive results are not listed.
Tested on: L1210 leukemia ip in BDF1 mice, survival T/C
Experiment: NCI In Vivo Anticancer Drug Screen. Data for tumor model L1210 Leukemia (intraperitoneal) in B6D2F1 (BDF1) mice
Settings: endpoint: mean survival time, higher = longer survival
Outline: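 Transplanted-tumor mice were given test agent; controls received vehicle only. Survival readings from the two groups were divided (treated over control).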

[1] = dose: 100.0 mg/kg/injection, schedule: Q04DX003 (ip), vehicle: saline
[2] = dose: 100.0 mg/kg/injection, schedule: Q01DX009 (ip), vehicle: Klucel (hydroxypropylcellulose) (HPC)
[3] = dose: 200.0 mg/kg/injection, schedule: Q01DX009 (ip), vehicle: Klucel (hydroxypropylcellulose) (HPC)
[4] = dose: 400.0 mg/kg/injection, schedule: Q01DX009 (ip), vehicle: Klucel (hydroxypropylcellulose) (HPC)
[5] = dose: 100.0 mg/kg/injection, schedule: Q01DX009 (ip), vehicle: saline with Tween-80
[6] = dose: 100.0 mg/kg/injection, schedule: Q04DX003 (ip), vehicle: saline with Tween-80
[7] = dose: 200.0 mg/kg/injection, schedule: Q01DX009 (ip), vehicle: saline with Tween-80
[8] = dose: 200.0 mg/kg/injection, schedule: Q04DX003 (ip), vehicle: saline with Tween-80
[9] = dose: 400.0 mg/kg/injection, schedule: Q01DX009 (ip), vehicle: saline with Tween-80
[10] = dose: 12.5 mg/kg/injection, schedule: Q01DX009 (ip), vehicle: saline with Tween-80
[11] = dose: 50.0 mg/kg/injection, schedule: Q01DX001 (ip), vehicle: saline

## NCCCCCCNC(=O)CCC(=O)NCCCCCCN
dose: 8.0 mg/kg/injection, schedule: Q01DX Z (ip), vehicle: water
  T/C: 86 % of control
dose: 16.0 mg/kg/injection, schedule: Q01DX Z (ip), vehicle: water
  T/C: 91 % of control
dose: 32.0 mg/kg/injection, schedule: Q01DX Z (ip), vehicle: water
  T/C: 88 % of control
dose: 64.0 mg/kg/injection, schedule: Q01DX Z (ip), vehicle: saline
  T/C: 109 % of control
dose: 64.0 mg/kg/injection, schedule: Q01DX Z (ip), vehicle: water
  T/C: 91 % of control
dose: 128.0 mg/kg/injection, schedule: Q01DX Z (ip), vehicle: saline
  T/C: 88 % of control

## CCNC(=O)NCc1ccc(Cl)c(Cl)c1
dose: 100.0 mg/kg/injection, schedule: Q04DX002 (ip), vehicle: Klucel (hydroxypropylcellulose) (HPC)
  T/C: 105 % of control
dose: 200.0 mg/kg/injection, schedule: Q04DX002 (ip), vehicle: Klucel (hydroxypropylcellulose) (HPC)
  T/C: 99 % of control

## OCC1OC(Oc2ccccc2)C(O)C(O)C1O (stereo not given)
[1]
  T/C: 96 % of control
dose: 200.0 mg/kg/injection, schedule: Q04DX003 (ip), vehicle: saline
  T/C: 105 % of control
dose: 400.0 mg/kg/injection, schedule: Q04DX003 (ip), vehicle: saline
  T/C: 100 % of control

## O=NN(c1ccccc1)c1ccccc1
dose: 100.0 mg/kg/injection, schedule: Q01DX001 (ip), vehicle: Klucel (hydroxypropylcellulose) (HPC)
  T/C: 98 % of control
[2]
  T/C: 100 % of control
dose: 200.0 mg/kg/injection, schedule: Q01DX001 (ip), vehicle: Klucel (hydroxypropylcellulose) (HPC)
  T/C: 101 % of control
[3]
  T/C: 102 % of control
dose: 400.0 mg/kg/injection, schedule: Q01DX001 (ip), vehicle: Klucel (hydroxypropylcellulose) (HPC)
  T/C: 87 % of control
[4]
  T/C: 92 % of control

## CC(=O)Nc1ccc(C(=O)O)c(OC(C)=O)c1
dose: 100.0 mg/kg/injection, schedule: Q01DX001 (ip), vehicle: saline with Tween-80
  T/C: 92 % of control
dose: 200.0 mg/kg/injection, schedule: Q01DX001 (ip), vehicle: saline with Tween-80
  T/C: 96 % of control
dose: 400.0 mg/kg/injection, schedule: Q01DX001 (ip), vehicle: saline with Tween-80
  T/C: 97 % of control

## CO[C@@]12[C@H](COC(N)=O)C3=C(C(=O)C(C)=C(NCCO)C3=O)N1C[C@@H]1N[C@@H]12
dose: 2.9 mg/kg/injection, schedule: Q01DX001 (ip), vehicle: acetone
  T/C: 113 % of control
dose: 4.3 mg/kg/injection, schedule: Q01DX001 (ip), vehicle: acetone
  T/C: 117 % of control
dose: 6.6 mg/kg/injection, schedule: Q01DX001 (ip), vehicle: saline
  T/C: 113 % of control
dose: 7.5 mg/kg/injection, schedule: Q01DX009 (ip), vehicle: saline
  T/C: 91 % of control
dose: 9.9 mg/kg/injection, schedule: Q01DX001 (ip), vehicle: saline
  T/C: 111 % of control
dose: 22.0 mg/kg/injection, schedule: Q01DX001 (ip), vehicle: saline
  T/C: 113 % of control
dose: 33.0 mg/kg/injection, schedule: Q01DX001 (ip), vehicle: acetone
  T/C: 159 % of control

## CC(=O)n1cc(C2CC(=O)OC3=C2CC(=O)C(C)(C)C3)c2ccccc21 (stereo not given)
[5]
  T/C: 100 % of control
[6]
  T/C: 95 % of control
[7]
  T/C: 96 % of control
[8]
  T/C: 101 % of control
[9]
  T/C: 91 % of control
dose: 400.0 mg/kg/injection, schedule: Q04DX003 (ip), vehicle: saline with Tween-80
  T/C: 101 % of control

## CCOC(=O)C1CC=CCC1C(=O)OCC (stereo not given)
dose: 50.0 mg/kg/injection, schedule: Q01DX009 (ip), vehicle: Klucel (hydroxypropylcellulose) (HPC)
  T/C: 105 % of control
dose: 75.0 mg/kg/injection, schedule: Q01DX009 (ip), vehicle: Klucel (hydroxypropylcellulose) (HPC)
  T/C: 108 % of control
dose: 150.0 mg/kg/injection, schedule: Q01DX009 (ip), vehicle: Klucel (hydroxypropylcellulose) (HPC)
  T/C: 112 % of control

## O=CC1CC2c3ccccc3C1c1ccccc12 (stereo not given)
dose: 100.0 mg/kg/injection, schedule: Q01DX009 (ip), vehicle: gum acacia
  T/C: 106 % of control
dose: 100.0 mg/kg/injection, schedule: Q04DX003 (ip), vehicle: gum acacia
  T/C: 95 % of control
dose: 200.0 mg/kg/injection, schedule: Q01DX009 (ip), vehicle: gum acacia
  T/C: 95 % of control
dose: 200.0 mg/kg/injection, schedule: Q04DX003 (ip), vehicle: gum acacia
  T/C: 92 % of control
dose: 400.0 mg/kg/injection, schedule: Q01DX009 (ip), vehicle: gum acacia
  T/C: 102 % of control
dose: 400.0 mg/kg/injection, schedule: Q04DX003 (ip), vehicle: gum acacia
  T/C: 87 % of control

## CCOC(=O)/C=C/C(=O)OCC
[2]
  T/C: 100 % of control
[3]
  T/C: 103 % of control
[4]
  T/C: 108 % of control

## O=C1C=CC(=O)N1CN1CCOCC1
dose: 3.12 mg/kg/injection, schedule: Q01DX009 (ip), vehicle: saline with Tween-80
  T/C: 96 % of control
dose: 6.25 mg/kg/injection, schedule: Q01DX009 (ip), vehicle: saline with Tween-80
  T/C: 96 % of control
[10]
  T/C: 93 % of control

## CNc1nc(SC)ncc1C
dose: 25.0 mg/kg/injection, schedule: Q01DX Z (ip), vehicle: methylcellulose (MC)
  T/C: 92 % of control
dose: 50.0 mg/kg/injection, schedule: Q01DX Z (ip), vehicle: methylcellulose (MC)
  T/C: 89 % of control

## NC(CSS(=O)(=O)O)=NCCCCc1ccccc1
dose: 12.5 mg/kg/injection, schedule: Q04DX002 (ip), vehicle: Klucel (hydroxypropylcellulose) (HPC)
  T/C: 91 % of control
dose: 25.0 mg/kg/injection, schedule: Q04DX002 (ip), vehicle: Klucel (hydroxypropylcellulose) (HPC)
  T/C: 102 % of control

## O=C(O)CCN(CCC(=O)O)CCC(=O)O
dose: 44.0 mg/kg/injection, schedule: Q01DX009 (ip), vehicle: alkali diluted with saline
  T/C: 97 % of control
dose: 66.0 mg/kg/injection, schedule: Q01DX009 (ip), vehicle: saline
  T/C: 96 % of control
dose: 67.0 mg/kg/injection, schedule: Q01DX009 (ip), vehicle: alkali diluted with saline
  T/C: 98 % of control
dose: 100.0 mg/kg/injection, schedule: Q01DX009 (ip), vehicle: alkali diluted with saline
  T/C: 101 % of control
dose: 100.0 mg/kg/injection, schedule: Q01DX009 (ip), vehicle: saline
  T/C: 94 % of control
dose: 100.0 mg/kg/injection, schedule: Q04DX003 (ip), vehicle: alkali diluted with saline
  T/C: 100 % of control
dose: 150.0 mg/kg/injection, schedule: Q01DX009 (ip), vehicle: alkali diluted with saline
  T/C: 103 % of control
dose: 150.0 mg/kg/injection, schedule: Q01DX009 (ip), vehicle: saline
  T/C: 102 % of control
[7]
  T/C: 101 % of control
dose: 200.0 mg/kg/injection, schedule: Q04DX003 (ip), vehicle: alkali diluted with saline
  T/C: 108 % of control
[9]
  T/C: 100 % of control
dose: 400.0 mg/kg/injection, schedule: Q04DX003 (ip), vehicle: alkali diluted with saline
  T/C: 97 % of control

## O=C(Nc1ccccc1)OCC(CN1CCCCC1)OC(=O)Nc1ccccc1 (stereo not given)
[10]
  T/C: 97 % of control
dose: 25.0 mg/kg/injection, schedule: Q01DX009 (ip), vehicle: saline with Tween-80
  T/C: 99 % of control
dose: 50.0 mg/kg/injection, schedule: Q01DX009 (ip), vehicle: saline with Tween-80
  T/C: 99 % of control
[5]
  T/C: 86 % of control
[6]
  T/C: 98 % of control
[7]
  T/C: 91 % of control
[8]
  T/C: 90 % of control

## CCCCCCCC(=O)NOS(=O)(=O)O
dose: 25.0 mg/kg/injection, schedule: Q01DX001 (ip), vehicle: saline
  T/C: 101 % of control
dose: 25.0 mg/kg/injection, schedule: Q01DX009 (ip), vehicle: saline
  T/C: 91 % of control
dose: 25.0 mg/kg/injection, schedule: Q04DX003 (ip), vehicle: saline
  T/C: 100 % of control
[11]
  T/C: 97 % of control
dose: 50.0 mg/kg/injection, schedule: Q01DX009 (ip), vehicle: saline
  T/C: 88 % of control
dose: 50.0 mg/kg/injection, schedule: Q04DX003 (ip), vehicle: saline
  T/C: 95 % of control
[1]
  T/C: 95 % of control

## COc1ccc(C(=O)N/N=C/c2ccccc2)cc1
[11]
  T/C: 102 % of control
dose: 100.0 mg/kg/injection, schedule: Q01DX001 (ip), vehicle: saline
  T/C: 98 % of control
dose: 200.0 mg/kg/injection, schedule: Q01DX001 (ip), vehicle: saline
  T/C: 98 % of control
dose: 400.0 mg/kg/injection, schedule: Q01DX001 (ip), vehicle: saline
  T/C: 98 % of control

## O=C(O)C1CCCCC1C(=O)NCc1ccco1 (stereo not given)
[2]
  T/C: 95 % of control
[3]
  T/C: 96 % of control
[4]
  T/C: 88 % of control

From PubChem BioAssay AID248 (DTP/NCI, 2004)
